According to US20160046610A1, “3-HETEROARYL SUBSTITUTED INDAZOLES” (BAYER PHARMA AKTIENGESELLSCHAFT, priority 2013, published 2016):
Like-named read-outs stand apart in the source and are kept apart here.

Target: T1, catalytic domain of human Bub1 (amino acids 704-1085) (Homo sapiens, UniProt O43683)
T1 construct: catalytic domain of human Bub1 (amino acids 704-1085); His6 (N); made in house; host or cells: Hi5 insect cells
Test: Bub1 kinase assay (TR-FRET)
Assay type: biochemical
Protocol: To this end, 100-fold concentrated compound solutions (in DMSO) were previously prepared by serial dilution (1:3.4) of 2 mM stocks in a clear low volume 384-well source microtiter plate (Greiner Bio-One, Frickenhausen, Germany), from which 50 nl of compounds were transferred into a black low volume test microtiter plate from the same supplier. […] The resulting mixture (5 μL final volume) was incubated at 22° C. during 60 min., and the reaction was stopped by the addition of 5 μL of an aqueous EDTA-solution (50 mM EDTA, in 100 mM HEPES pH 7.5 and 0.2% (w/v) bovine serum albumin) which also contained the TR-FRET detection reagents (0.2 μM streptavidin-XL665 [Cisbio Bioassays, Codolet, France] and 1 nM anti-phosho-Serine antibody [Merck Millipore, cat. #35-001] and 0.4 nM LANCE EU-W1024 labeled anti-mouse IgG antibody [Perkin-Elmer, product no. AD0077, alternatively a Terbium-cryptate-labeled anti-mouse IgG antibody from Cisbio Bioassays can be used]). The stopped reaction mixture was further incubated 1 h at 22° C. in order to allow the formation of complexes between peptides and detection reagents. Subsequently, the amount of product was evaluated by measurement of the resonance energy transfer from the Eu-chelate-antibody complex recognizing the Phosphoserine residue to the streptavidin-XL665 bound to the biotin moiety of the peptide. […] IC50 values were calculated by fitting the normalized inhibition data to a 4-parameter logistic equation (Minimum, Maximum, IC50, Hill; Y=Max+(Min−Max)/(1+(X/IC50)Hill)).

[1] = TR-FRET, recombinant catalytic domain of human Bub1, ATP 10 μM, peptide substrate 1 μM, median value, read-out: Biological Assay 1: Bub1 kinase assay median IC50

T1 sequence (O43683 704-1085): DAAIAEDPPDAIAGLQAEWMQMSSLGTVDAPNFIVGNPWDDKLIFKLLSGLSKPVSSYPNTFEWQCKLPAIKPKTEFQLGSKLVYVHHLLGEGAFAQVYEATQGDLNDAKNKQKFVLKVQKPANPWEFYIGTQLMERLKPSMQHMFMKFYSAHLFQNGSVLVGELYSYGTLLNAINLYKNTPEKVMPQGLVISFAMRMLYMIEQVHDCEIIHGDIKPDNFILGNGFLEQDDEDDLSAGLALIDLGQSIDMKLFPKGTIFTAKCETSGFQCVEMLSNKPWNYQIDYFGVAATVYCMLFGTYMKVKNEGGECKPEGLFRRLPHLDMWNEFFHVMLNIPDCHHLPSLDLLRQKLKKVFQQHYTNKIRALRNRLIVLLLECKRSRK

Row | Compound | IC50 | IC50 [1]
1 | COc1ccc(Cn2nc(-c3ncc(OC)c(Nc4ccc(F)cc4)n3)c3ccccc32)cc1 [Example 2-1-6, N-(4-fluorophenyl)-5-methoxy-2-[1-(4-methoxybenzyl)-1H-indazol-3-yl]pyrimidin-4-amine] |  | 8.8 µM
2 | CCOc1cc(F)c(Cn2nc(-c3ncc(OC)c(Nc4ccc(F)cc4C(=O)O)n3)c3ccccc32)c(F)c1 [Example 2-2-5, 2-({2-[1-(4-ethoxy-2,6-difluorobenzyl)-1H-indazol-3-yl]-5-methoxypyrimidin-4-yl}amino)-5-fluorobenzoic acid] | 0.18 µM | 
3 | CCOc1cc(F)c(Cn2nc(-c3ncc(OC)c(Nc4ccccc4C(=O)O)n3)c3ccccc32)c(F)c1 [Example 2-2-4, 2-({2-[1-(4-ethoxy-2,6-difluorobenzyl)-1H-indazol-3-yl]-5-methoxypyrimidin-4-yl}amino)benzoic acid] | 0.29 µM | 
4 | CCOc1cc(F)c(Cn2nc(-c3cc(Nc4ccncn4)ccn3)c3cnccc32)c(F)c1 [Example 2-5-4, N-{2-[1-(4-ethoxy-2,6-difluorobenzyl)-1H-pyrazolo[4,3-c]pyridin-3-yl]pyridin-4-yl}pyrimidin-4-amine] | 0.22 µM | 
5 | COc1ccc(Cn2nc(-c3ncc(OC)c(Nc4ccccc4)n3)c3ccccc32)cc1 [Example 2-1-5, 5-methoxy-2-[1-(4-methoxybenzyl)-1H-indazol-3-yl]-N-phenylpyrimidin-4-amine] |  | 3.7 µM
6 | COc1ccc(Cn2nc(-c3ncc(OC)c(Nc4ccnn4C)n3)c3ccccc32)cc1 [Example 2-1-4, 5-methoxy-2-[1-(4-methoxybenzyl)-1H-indazol-3-yl]-N-(1-methyl-1H-pyrazol-5-yl)pyrimidin-4-amine] |  | 3.3 µM

Continued, values first:

Row | IC50 | IC50 [1] | Compound
7 | 17 µM |  | Cn1cc(Nc2ccnc(-c3nn(Cc4ccccc4F)c4ccccc34)c2)cn1 [Example 2-6-4, 2-[1-(2-fluorobenzyl)-1H-indazol-3-yl]-N-(1-methyl-1H-pyrazol-4-yl)pyridin-4-amine]
8 |  | 2.8 µM | COc1ccc(Cn2nc(-c3nccc(Nc4nnc(N)[nH]4)n3)c3ccccc32)cc1 [Example 2-5-5, N-{2-[1-(4-methoxybenzyl)-1H-indazol-3-yl]pyrimidin-4-yl}-4H-1,2,4-triazole-3,5-diamine]
9 |  | 0.8 µM | CCOc1cc(F)c(Cn2nc(-c3cc(Nc4nnc[nH]4)ccn3)c3ccccc32)c(F)c1 [Example 2-8-2, 2-[1-(4-ethoxy-2,6-difluorobenzyl)-1H-indazol-3-yl]-N-(4H-1,2,4-triazol-3-yl)pyridin-4-amine]
10 |  | 0.12 µM | CCOc1cc(F)c(Cn2nc(-c3cc(Nc4ncnn4CC)ccn3)c3ccccc32)c(F)c1 [Example 2-8-1, 2-[1-(4-ethoxy-2,6-difluorobenzyl)-1H-indazol-3-yl]-N-(1-ethyl-1H-1,2,4-triazol-5-yl)pyridin-4-amine]
